# Data as given in the CATMoS acute toxicity set (Mansouri et al. 2021).
# Assay: GHS categories as the set defines them, by LD50: 1 up to 5, 2 up to 50, 3 up to 300, 4 up to 2000, 5 above 2000 mg/kg
# Conditions: rat; in vivo; po
row,Structure (SMILES),GHS category
1,FC(C(F)C(F)(F)C(F)(F)F)C(F)(F)F (stereo not given),5
2,Cc1cccc(C)c1OP(=O)(Oc1c(C)cccc1C)Oc1c(C)cccc1C,5
3,COC(=O)C1=C(C)NC(C)=C(C(=O)OC2COC3C(O)COC23)C1c1cccc([N+](=O)[O-])c1 (stereo not given),5
4,CCCOc1nn(C(=O)NS(=O)(=O)c2ccccc2C(=O)OC)c(=O)n1C,5
5,CCCCCCCCCCCCCCCc1cccc(OC(=O)c2cc(Cl)ccc2OC(N)=O)c1,5
6,CCC(C)C(=O)OCCc1ccccc1 (stereo not given),5
7,COC(=O)c1ccccc1CS(=O)(=O)NC(=O)Nc1nc(OC)cc(OC)n1,5
8,O=C(CCc1ccc(O)cc1)Nc1ccccc1C(=O)O,5
9,COc1ccccc1N=NC(C(C)=O)C(=O)Nc1ccc2[nH]c(=O)[nH]c2c1 (stereo not given),5
10,CC(=O)Oc1c(I)cc(I)cc1C(=O)Nc1ccc(Cl)cc1,5
11,CCCBr,5
12,CCOC(=O)c1cnn(-c2ccccc2)c1N,4
13,C[C@]12CCC(=O)C=C1C=C[C@@H]1[C@@H]2CC[C@@]2(C)[C@H]1CC[C@@]21CCC(=O)O1,5
14,CC(C)(C)c1ccc(O)c(C(C)(C)C)c1,5
15,COc1ccc2cc3[n+](cc2c1OC)CCc1cc2c(cc1-3)OCO2,5
16,O=C(O)c1cc(O)ccc1Nc1ccc(O)c(C(F)(F)F)c1,4
17,O=C(O)[C@@H]1C[C@@H](C2CCCCC2)CN1,5
18,CN(C)Cn1c(=O)oc2ccc(Cl)cc21,4
19,O=S(=O)(CCl)c1ccc(Br)cc1,5
20,CCC(C)(Oc1ccc(Cl)cc1)C(=O)OC1CC(C)CC(C)(C)C1 (stereo not given),5
21,CCCCCCCCCCCCO[PH](=O)OCCCCCCCCCCCC,5
22,CC1(C)CC2(CC(C)(C)c3ccc(O)cc32)c2cc(O)ccc21,5
23,CCOC(=O)C(=O)Nc1cccc(OC)c1C(N)=O,5

row,Structure (SMILES),GHS category
1,NC(=O)NNC(N)=O,5
2,CCCCCCCCCCCCCCCCCCOCCC[N+](C)(C)C,4
3,CC(C)(CCn1c(=O)[nH]c2ccccc21)NCC(O)COc1cccc2ccccc12 (stereo not given),5
4,C[N+]1(CC(O)COc2cccc3c2CCC(=O)N3)CCC(c2ccccc2)CC1 (stereo not given),4
5,CC12CCC3C(CC=C4C=C(N5CCCC5)CCC43C)C1CCC2=O (stereo not given),5
6,CC[C@H]1OC(=O)C[C@@H](O)[C@H](C)[C@@H](O[C@@H]2O[C@H](C)[C@@H](O[C@H]3C[C@@](C)(O)[C@@H](O)[C@H](C)O3)[C@H](N(C)C)[C@H]2O)[C@@H](CC=O)C[C@@H](C)C(=O)C=CC(C)=CC1CO[C@@H]1O[C@H](C)[C@@H](O)[C@@H](OC)[C@H]1OC (stereo not given in full),5
7,CCCCOC(=O)Cc1ccccc1,5
8,CCCCCCCCCCCCOC(=O)CCSCCC(=O)OCCCCCCCCCCCC,5
9,COCC1CN(c2ccc(OCc3cccc(C#N)c3)cc2)C(=O)O1 (stereo not given),5
10,S=P(Oc1ccccc1)(Oc1ccccc1)Oc1ccccc1,5
11,Fc1ccc(N/C(=N/C2CCCCC2)c2ccccc2)cc1,5
12,CCCC(=O)c1ccc(NC)c(O)c1,5
13,O=S(=O)(O)c1ccc2c(c1)Nc1cc3nc4ccc(S(=O)(=O)O)cc4nc3cc1N2,5
14,CCCCCCC(COC(=O)c1cccnc1)(COC(=O)c1cccnc1)COC(=O)c1cccnc1,5
15,CC[C@H](C)C(=O)O[C@H]1C[C@H](O)C=C2C=C[C@H](C)[C@H](CC[C@@H](O)C[C@@H](O)CC(=O)O)[C@H]21,5
16,CCO[Si](CN(CC)CC)(OCC)OCC,5
17,CCCCCC(=O)CC,5
18,Cn1c(=O)oc2cc(C(=O)c3ccccc3)ccc21,5
19,CCCCC(CC)CN1CN(CC(CC)CCCC)CC(C)(N)C1 (stereo not given),4
20,COc1nn(-c2cccc(C(F)(F)F)c2)c2ncccc12,4
21,O=C1Nc2ccccc2OC1(c1ccc(O)cc1)c1ccc(O)cc1,5
22,O=C(O)COc1ccc(Cl)cc1CO,5
